This is an account of results in patent US20240300944A1, “NOVEL UREA DERIVATIVE COMPOUND AS RON INHIBITOR” (LG CHEM, LTD., priority 2021, published 2024).

For orientation: IC50 means the concentration that inhibits the measured activity by half. A low value points to higher potency.

One test has as its target cMET (Homo sapiens, UniProt P08581). The test can be described thus: Inhibitory activity against MET (cMET), TR-FRET kinase assay. It is filed as biochemical. The settings on record: cMET enzyme. Here is the method: In addition, in order to measure the enzyme activity inhibition for cMET, the evaluation was performed in the same manner as the enzyme activity inhibition measurement experiment for the RON.
Specifically, the compound was prepared to a concentration of 1 mM with 100% DMSO and was diluted 10 times in a stepwise manner through 3-fold dilution. 2 ul of the compound diluted in a stepwise manner was added to a 96-well-plate containing 48 ul of a 1× kinase reaction buffer (50 mM HEPES (pH 7.4), 0.05% BSA, 0.005% Tween-20, 1 mM DTT, 0.5 mM MnCl2, 20 mM MgCl2).
The cMET protein was diluted to a concentration of 263 nM with a cMET storage buffer (50 mM Tris-HCl (pH 7.5), 150 mM NaCl, 0.05% Brij35, 1 mM DTT, 10% Glycerol), and then diluted again to a concentration of 2 nM with a 1× kinase reaction buffer. As a substrate cocktail, a MET-specific substrate mixture (5 uM TK peptide, […]) at a concentration 2 times the final reaction concentration.
Thereafter, a 384-well-plate was prepared, and 2.5 μl of each of the diluted compounds of Examples was added to a corresponding well of experimental group wells, and 2.5 μl of a 4% DMSO solution was dispensed into high control wells and low control wells.
(§1) Thereafter, 2.5 μL of 2 nM cMET was dispensed into the high control wells and the experimental group wells, and 2.5 μL of a 1× kinase reaction buffer was added to the low control wells, and the […] and the reaction buffer were centrifuged at room temperature for 40 seconds at 1000 RPM, and then incubated at room temperature for 20 to 30 minutes. Then, 5 μL of a substrate cocktail (2×) was dispensed into all wells, centrifuged at room temperature for 40 seconds at 1000 RPM, and then incubated at room temperature for 60 minutes. Thereafter, 5 μL of 90 mM EDTA was added to all wells to terminate the reaction, and then incubated again at room temperature for 5 minutes. Thereafter, 5 μL of a 4× phosphotyrosine antibody (Perkin Elmer) containing europium was added to all wells, and then incubated at room temperature for 60 minutes. After the incubation, the 384-well-plate was read with a Vison plate reader. At this time, the excitation wavelength was 340 nm, and the emission wavelength was 620 nm and 665 nm. The IC50 value of the compound of each Example was derived using the GraphPd Prism7 program.
On the technique in general: Time-resolved FRET reads energy transfer from a long-lived donor to a nearby acceptor.

In a further test the target is RON (Homo sapiens, UniProt Q04912). The test can be described thus: Inhibitory activity against RON, TR-FRET kinase assay. It is filed as biochemical. The conditions noted are these: RON enzyme. How it is done:
In order to measure the inhibitory activity of each of the compounds of Examples against RON, the IC50 of each of the compounds was measured using a Time-Resolved Fluorescence Energy Transfer Chemistry (TR-FRET).
Specifically, the compound was prepared to a concentration of 1 mM with 100% DMSO and was diluted 10 times in a stepwise manner through 3-fold dilution. 2 ul of the compound diluted in a stepwise manner was added to a 96-well-plate containing 48 ul of a 1× kinase reaction buffer (50 mM HEPES (pH 7.4), 0.01% Tween-20, 5 mM DTT, 0.5 mM Na3VO4, 2 mM EGTA, 10 mM MgCl2).
The RON protein was diluted to a concentration of 49.3 nM with an RON storage buffer (50 mM Tris-HCl (pH 7.5), 150 mM NaCl, 0.5 mM EDTA, 0.02% Triton X-100), and then diluted again to a concentration of 0.4 nM with a 1× kinase reaction buffer. As a substrate cocktail, a RON-specific substrate mixture (40 uM ULight-labeled Poly GT, 100 nM ATP) at a concentration 2 times the final reaction concentration.
Thereafter, a 384-well-plate was prepared, and 2.5 ul of each of the diluted compounds of Examples was added to a corresponding well of experimental group wells, and 2.5 ul of a 4% DMSO solution was dispensed into high control wells and low control wells.
as §1, with “of 0.4” for “of 2”, “nM RON” for “nM cMET”, “of 30” for “of 90”

Chain of RON (Q04912 25-1400, species assumed): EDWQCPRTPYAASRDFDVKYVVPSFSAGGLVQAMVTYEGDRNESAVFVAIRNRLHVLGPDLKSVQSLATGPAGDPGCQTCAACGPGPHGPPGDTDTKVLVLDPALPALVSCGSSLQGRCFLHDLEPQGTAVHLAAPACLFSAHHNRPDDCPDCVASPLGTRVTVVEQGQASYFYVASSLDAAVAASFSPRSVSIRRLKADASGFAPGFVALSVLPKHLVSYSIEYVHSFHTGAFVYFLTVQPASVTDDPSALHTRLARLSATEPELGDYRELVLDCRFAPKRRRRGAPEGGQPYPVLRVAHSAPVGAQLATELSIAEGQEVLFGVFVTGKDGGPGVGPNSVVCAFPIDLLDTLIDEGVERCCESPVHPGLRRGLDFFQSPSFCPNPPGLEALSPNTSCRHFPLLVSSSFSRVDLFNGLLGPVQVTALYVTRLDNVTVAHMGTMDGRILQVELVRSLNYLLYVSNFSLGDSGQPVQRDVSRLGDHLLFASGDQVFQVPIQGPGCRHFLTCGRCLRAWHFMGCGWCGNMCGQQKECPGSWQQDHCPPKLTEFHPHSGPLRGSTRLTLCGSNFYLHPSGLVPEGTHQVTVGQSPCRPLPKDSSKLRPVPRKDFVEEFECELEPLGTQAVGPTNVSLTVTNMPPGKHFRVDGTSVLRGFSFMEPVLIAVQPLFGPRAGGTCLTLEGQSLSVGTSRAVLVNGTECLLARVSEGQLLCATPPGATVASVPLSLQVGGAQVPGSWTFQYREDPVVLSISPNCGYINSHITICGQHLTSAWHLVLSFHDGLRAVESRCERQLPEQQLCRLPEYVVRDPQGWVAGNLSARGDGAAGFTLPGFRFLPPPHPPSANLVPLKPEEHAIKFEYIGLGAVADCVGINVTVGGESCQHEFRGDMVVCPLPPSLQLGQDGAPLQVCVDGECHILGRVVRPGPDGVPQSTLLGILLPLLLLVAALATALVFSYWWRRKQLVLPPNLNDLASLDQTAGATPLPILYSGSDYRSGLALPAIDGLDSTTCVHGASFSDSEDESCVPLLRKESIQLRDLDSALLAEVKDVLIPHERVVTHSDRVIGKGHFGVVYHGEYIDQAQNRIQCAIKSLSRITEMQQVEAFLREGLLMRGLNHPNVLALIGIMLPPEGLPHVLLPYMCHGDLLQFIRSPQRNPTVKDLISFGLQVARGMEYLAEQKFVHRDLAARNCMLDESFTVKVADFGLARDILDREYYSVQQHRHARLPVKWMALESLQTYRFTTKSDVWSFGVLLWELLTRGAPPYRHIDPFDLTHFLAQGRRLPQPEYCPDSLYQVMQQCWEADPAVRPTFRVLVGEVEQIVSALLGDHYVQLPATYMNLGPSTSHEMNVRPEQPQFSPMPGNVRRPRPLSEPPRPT
Chain of cMET (P08581 25-1390): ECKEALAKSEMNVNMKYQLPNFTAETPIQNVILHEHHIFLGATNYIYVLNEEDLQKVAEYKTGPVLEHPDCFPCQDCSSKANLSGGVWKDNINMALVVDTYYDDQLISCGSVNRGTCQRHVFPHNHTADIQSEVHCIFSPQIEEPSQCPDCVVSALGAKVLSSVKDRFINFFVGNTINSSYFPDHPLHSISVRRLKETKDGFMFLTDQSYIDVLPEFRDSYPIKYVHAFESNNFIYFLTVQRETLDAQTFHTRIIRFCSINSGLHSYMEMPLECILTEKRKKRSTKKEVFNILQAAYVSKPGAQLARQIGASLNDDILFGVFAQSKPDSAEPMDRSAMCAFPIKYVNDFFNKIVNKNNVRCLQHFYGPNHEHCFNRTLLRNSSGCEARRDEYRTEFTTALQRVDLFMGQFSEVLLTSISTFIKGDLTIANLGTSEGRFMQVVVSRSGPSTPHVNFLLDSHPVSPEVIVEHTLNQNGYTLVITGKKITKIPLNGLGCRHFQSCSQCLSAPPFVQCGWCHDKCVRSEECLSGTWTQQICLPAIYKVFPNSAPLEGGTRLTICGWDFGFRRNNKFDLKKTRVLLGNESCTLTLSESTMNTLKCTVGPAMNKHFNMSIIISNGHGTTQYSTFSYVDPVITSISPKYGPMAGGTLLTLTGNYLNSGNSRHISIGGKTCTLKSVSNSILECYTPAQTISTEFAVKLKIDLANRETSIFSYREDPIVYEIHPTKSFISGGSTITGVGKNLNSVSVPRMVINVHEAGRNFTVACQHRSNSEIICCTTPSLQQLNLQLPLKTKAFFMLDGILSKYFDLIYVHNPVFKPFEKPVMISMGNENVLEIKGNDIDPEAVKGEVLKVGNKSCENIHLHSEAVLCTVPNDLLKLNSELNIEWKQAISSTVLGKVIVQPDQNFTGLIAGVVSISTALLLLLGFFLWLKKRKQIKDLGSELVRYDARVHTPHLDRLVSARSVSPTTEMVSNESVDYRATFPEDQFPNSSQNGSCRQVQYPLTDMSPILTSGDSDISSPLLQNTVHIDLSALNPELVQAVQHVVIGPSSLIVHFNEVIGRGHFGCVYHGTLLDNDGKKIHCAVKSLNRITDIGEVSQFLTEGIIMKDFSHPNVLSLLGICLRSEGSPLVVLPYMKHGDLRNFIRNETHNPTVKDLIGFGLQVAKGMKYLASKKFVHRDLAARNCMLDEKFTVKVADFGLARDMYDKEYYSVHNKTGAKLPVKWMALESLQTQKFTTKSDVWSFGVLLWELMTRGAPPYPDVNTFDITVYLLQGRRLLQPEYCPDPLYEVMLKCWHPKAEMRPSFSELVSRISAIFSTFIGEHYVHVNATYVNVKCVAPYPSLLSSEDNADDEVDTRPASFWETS

As for `COc1ccccc1-n1ncc(C(=O)Nc2ccc(Oc3ccnc4[nH]c(=O)n(C(C)C)c34)c(F)c2)c1C(F)(F)F` [Example 18, N-(3-fluoro-4-((1-isopropyl-2-oxo-2,3-dihydro-1H-imidazo[4,5-b]pyridine-7-yl)oxy)phenyl)-1-(2-methoxyphenyl)-5-(trifluoromethyl)-1H-pyrazole-4-carboxamide], the IC50 lay within 500 to 5000 nM on cMET and 50 to 500 nM against RON.
Consider `CC(C)n1c(=O)[nH]c2nccc(Oc3ccc(NC(=O)c4cnn(-c5ccccc5)c4-c4ccccc4)cc3F)c21` [Example 19, N-(3-fluoro-4-((1-isopropyl-2-oxo-2,3-dihydro-1H-imidazo[4,5-b]pyridine-7-yl)oxy)phenyl)-1,5-diphenyl-1H-pyrazole-4-carboxamide], for which the IC50 against cMET and against RON was 50 to 500 nM in each case.
Regarding `CC(C)n1c(=O)[nH]c2nccc(Oc3ccc(NC(=O)c4cnn(C5CCCOC5)c4C(F)(F)F)cc3F)c21` (centres unmarked) [Example 20, N-(3-fluoro-4-((1-isopropyl-2-oxo-2,3-dihydro-1H-imidazo[4,5-b]pyridine-7-yl)oxy)phenyl)-1-(tetrahydro-2H-pyran-3-yl)-5-(trifluoromethyl)-1H-pyrazole-4-carboxamide], the IC50 was 500 to 5000 nM against cMET and less than 50 nM against RON.
In the same order, the values of `O=C(Nc1ccc(Oc2ccnc3[nH]c(=O)n(C4CCCC4)c23)c(F)c1)c1ncn(-c2ccccc2)c1C(F)(F)F` [Example 21, N-(4-((1-cyclopentyl-2-oxo-2,3-dihydro-1H-imidazo[4,5-b]pyridine-7-yl)oxy)-3-fluorophenyl)-1-phenyl-5-(trifluoromethyl)-1H-imidazole-4-carboxamide] are 500 to 5000 nM and less than 50 nM.
Take `O=C(Nc1ccc(Oc2ccnc3[nH]c(=O)n(C4CCCC4)c23)c(F)c1)c1cnn(-c2ccccc2)c1C(F)(F)F` [Example 22, N-(4-((1-cyclopentyl-2-oxo-2,3-dihydro-1H-imidazo[4,5-b]pyridine-7-yl)oxy)-3-fluorophenyl)-1-phenyl-5-(trifluoromethyl)-1H-pyrazole-4-carboxamide]: the IC50 at cMET was 500 to 5000 nM; on RON, less than 50 nM.
As to `CCc1c(C(=O)Nc2ccc(Oc3ccnc4[nH]c(=O)n(C5CCCC5)c34)c(F)c2)cnn1-c1ccccc1` [Example 23, N-(4-((1-cyclopentyl-2-oxo-2,3-dihydro-1H-imidazo[4,5-b]pyridine-7-yl)oxy)-3-fluorophenyl)-5-ethyl-1-phenyl-1H-pyrazole-4-carboxamide], the results for the IC50 at cMET and against RON were 500 to 5000 nM and 50 to 500 nM, respectively.
For the molecule `CC(C)n1c(=O)[nH]c2nccc(Oc3ccc(NC(=O)c4ccccc4C(F)(F)F)cc3F)c21` [Example 24, N-(3-fluoro-4-((1-isopropyl-2-oxo-2,3-dihydro-1H-imidazo[4,5-b]pyridine-7-yl)oxy)phenyl)-2-(trifluoromethyl)benzamide], the IC50 at cMET and against RON was 500 to 5000 nM in each case.
On to `CC(C)n1c(=O)[nH]c2nccc(Oc3ccc(NC(=O)c4ccc(Br)cc4C(F)(F)F)cc3F)c21` [Example 25, 4-bromo-N-(3-fluoro-4-((1-isopropyl-2-oxo-2,3-dihydro-1H-imidazo[4,5-b]pyridine-7-yl)oxy)phenyl)-2-(trifluoromethyl)benzamide], for which the IC50 is more than 5000 nM on cMET and 50 to 500 nM on RON.
In the case of `CC(C)n1c(=O)[nH]c2nccc(Oc3ccc(NC(=O)c4cnn(-c5cccc6ccccc56)c4C(F)(F)F)cc3F)c21` [Example 26, N-(3-fluoro-4-((1-isopropyl-2-oxo-2,3-dihydro-1H-imidazo[4,5-b]pyridine-7-yl)oxy)phenyl)-1-(naphthalene-1-yl)-5-(trifluoromethyl)-1H-pyrazole-4-carboxamide], the IC50 at cMET is 500 to 5000 nM; against RON, 50 to 500 nM.
On to `CC(C)n1c(=O)[nH]c2nccc(Oc3ccc(NC(=O)c4cccc(Br)c4C(F)(F)F)cc3F)c21` [Example 27, 3-bromo-N-(3-fluoro-4-((1-isopropyl-2-oxo-2,3-dihydro-1H-imidazo[4,5-b]pyridine-7-yl)oxy)phenyl)-2-(trifluoromethyl)benzamide], for which the IC50 at cMET is more than 5000 nM; against RON, 500 to 5000 nM.
The like results for `CC(C)n1c(=O)[nH]c2nccc(Oc3ccc(NC(=O)c4cnn(C5CCCCC5)c4C(F)(F)F)cc3F)c21` [Example 28, 1-cyclohexyl-N-(3-fluoro-4-((1-isopropyl-2-oxo-2,3-dihydro-1H-imidazo[4,5-b]pyridine-7-yl)oxy)phenyl)-5-(trifluoromethyl)-1H-pyrazole-4-carboxamide] were, in that order, 500 to 5000 nM and less than 50 nM.
In the same order, the values of `CC(C)n1c(=O)[nH]c2nccc(Oc3ccc(NC(=O)c4cnn(C5CCOCC5)c4C(F)(F)F)cc3F)c21` [Example 29, N-(3-fluoro-4-((1-isopropyl-2-oxo-2,3-dihydro-1H-imidazo[4,5-b]pyridine-7-yl)oxy)phenyl)-1-(tetrahydro-2H-pyran-4-yl)-5-(trifluoromethyl)-1H-pyrazole-4-carboxamide] are 50 to 500 nM and 50 to 500 nM.
In the same order, the values of `CC(C)n1c(=O)[nH]c2nccc(Oc3ccc(NC(=O)c4cnn(C(C)(C)C)c4C(F)(F)F)cc3F)c21` [Example 30, 1-(tert-butyl)-N-(3-fluoro-4-((1-isopropyl-2-oxo-2,3-dihydro-1H-imidazo[4,5-b]pyridine-7-yl)oxy)phenyl)-5-(trifluoromethyl)-1H-pyrazole-4-carboxamide] are 500 to 5000 nM and 50 to 500 nM.
For the molecule `CC(C)n1c(=O)[nH]c2nccc(Oc3ccc(NC(=O)c4cnn(C5CCCCCC5)c4C(F)(F)F)cc3F)c21` [Example 31, 1-cycloheptyl-N-(3-fluoro-4-((1-isopropyl-2-oxo-2,3-dihydro-1H-imidazo[4,5-b]pyridine-7-yl)oxy)phenyl)-5-(trifluoromethyl)-1H-pyrazole-4-carboxamide], the values for the IC50 at cMET and on RON were 500 to 5000 nM and less than 50 nM, respectively.
On to `CC(C)n1c(=O)[nH]c2nccc(Oc3ccc(NC(=O)Cc4cnn(-c5ccccc5)c4C(F)(F)F)cc3F)c21` [Example 32, N-(3-fluoro-4-((1-isopropyl-2-oxo-2,3-dihydro-1H-imidazo[4,5-b]pyridine-7-yl)oxy)phenyl)-2-(1-phenyl-5-(trifluoromethyl)-1H-pyrazol-4-yl)acetamide], for which the IC50 on cMET was 500 to 5000 nM; on RON it was 50 to 500 nM.
In the same order, the values of `CC(C)n1c(=O)[nH]c2nccc(Oc3ccc(NC(=O)c4cnn(C5CCCN(C)C5)c4C(F)(F)F)cc3F)c21` (centres unmarked) [Example 33, N-(3-fluoro-4-((1-isopropyl-2-oxo-2,3-dihydro-1H-imidazo[4,5-b]pyridine-7-yl)oxy)phenyl)-1-(1-methylpiperidine-3-yl)-5-(trifluoromethyl)-1H-pyrazole-4-carboxamide] are 500 to 5000 nM and 50 to 500 nM.
